# Data from patent US20080248008A1, “Inhibitors of Protein Kinase a Anchoring” (priority 2004, published 2008).
# What was measured:
# [1] = test system: human peripheral blood T cells; assay: IL-2 production assay in T cells (ELISA); assay type: cell-based
# Experimental: IL-2 production. T cells were cultured and activated by 10 or 50 μM Sp-8-Br-cAMPs (a cAMP agonist) for 15 minutes before the T cells were activated by anti-CD3/anti-CD28 beads (Dynal) for 20 hours. Cell free supernatants were harvested and stored at −80° C. until analsysed. The IL-2 levels were determined by Elisa (R & D Systems, Europe Ltd., UK):
# IL-2 production Assay. Primary T cells were stimulated or not with anti-CD3/anti-CD28 coated beads (Dynal, cat. no. 111.31) for 20 hours, thereafter supernatants were harvested and the concentration of IL-2 was assessed by ELISA (R&D Systems, cat. no D2050). When used, 8-CPT-cAMP was added for 15 minutes before CD3/CD28 treatment.
# To examine the effect of MEME3 on cytokine production, IL-2 levels in medium from human peripheral blood T cells treated with MEME3-Arg11 were measured by ELISA. First, cells were treated with MEME3-Arg11 for 12 hours, thereafter the PKA inhibitory pathway was activated by 10 or 50 μM Sp-8-Br-cAMPs (a cAMP agonist) for 15 minutes before the T cells were activated by CD3/CD28 stimulation (FIG. 21).
# [2] = molecular target: T1, N-terminal RIα deletion mutants (Bos taurus, UniProt P00514, A98S); assay: R-overlay with N-terminal RIα deletion mutants; assay type: binding
# T1 construct: made in house; host or cells: E. coli BL21 (B121 [sic])
# T1 sequence (P00514 25-380 A98S): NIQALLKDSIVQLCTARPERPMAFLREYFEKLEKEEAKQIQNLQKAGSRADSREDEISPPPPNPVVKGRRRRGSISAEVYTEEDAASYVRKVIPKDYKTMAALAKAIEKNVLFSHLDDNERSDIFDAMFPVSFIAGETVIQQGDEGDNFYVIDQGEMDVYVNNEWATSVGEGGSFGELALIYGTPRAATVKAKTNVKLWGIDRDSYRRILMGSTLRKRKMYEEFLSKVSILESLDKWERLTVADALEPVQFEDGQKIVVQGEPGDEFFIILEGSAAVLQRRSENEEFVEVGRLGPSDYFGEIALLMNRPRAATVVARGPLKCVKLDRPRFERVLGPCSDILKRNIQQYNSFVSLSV
# Experimental: (§1) R-overlay. R-overlays were conducted as described, using ^32P-labeled recombinant murine RII (Hausken, Z. E., et al., 1998 in Protein Targeting Protocols, ed. Clegg, R. A. (Humana, Totowa, N.J.), Vol. 88, pp. 47-64) or recombinant bovine RI (A98S) or by cold RI-overlay where bound RIα was detected by Western blot. Cold RI-overlay was performed by incubating the membranes with 250 nM RI overnight at 4° C., then the membranes were washed five times in TBST for 5 min. Detection of RI was performed using an anti-RI rabbit polyclonal antibody (Santa Cruz) at a concentration of 0.2 μg/μl for 1 hour at 4° C. Then the membranes were washed five times for 5 minutes in PBS followed by incubation with HRP-conjugated anti-rabbit IgGs (1:5000) for 1 hour at 4° C. The membranes were washed in PBS as described above before detection by Supersignal West Dura Extended Duration Substrate (Pierce).
# (§2) Constructs and mutagenesis. […]
# (§3) MEME3 and SM3 (scrambled negative control peptide) were cloned by preferred codon usage (Haas et al., 1996, Current Biol., 6:315-324) and with an N-terminal GFP-fusion. Lysate from transfected HEK293 cells (FIG. 10, left panel in A) and MEME3 synthesized on membrane (right panel in A) were analysed for R binding by RIα-^32P-overlay and RIIα-^32P overlay. […]
# [3] = test system: N-terminal RIα deletion mutants; assay: R-overlay with N-terminal RIα deletion mutants; assay type: binding; settings: compared with RIα
# Experimental: as §1, §2, §3
# [4] = test system: PKA-C subunit; assay: Coimmunoprecipitation of PKA kinase activity from HEK293 cells; assay type: biochemical, human
# Experimental: Coimmunoprecipitation of PKA kinase activity. Cells at 50-80% confluency were transfected by using FuGENE (Roche Biochemicals). Five micrograms of plasmid DNA (GFP-AKAP-is-V5His, GFP-Scrambled-AKAP-is-V5His, GFP-MEME3-V5H is-and GFP-Scrambled-MEME3-V5His) was transfected into HEK293-cells. Cells were lysed 24 h later in 20 mM Hepes, pH 7.5/150 mM NaCl/1 mM EDTA/1% Triton X-100. MEME3 and the other peptides was immunoprecipitated. PKA kinase assays were performed by the filter paper assay (Corbin and Reimann, 1974, Methods Enzymol., 38, 287-294). The protein kinase inhibitor (PKI) residues 5-24 peptide was used as a specific inhibitor of the kinase (Scott et al., 1986, PNAS, 83, 1613-1616).
# The specific activity (pmol/min per IP) of PKA-C subunit from HEK293 cells co-precipitating with chimeric MEME3 fusion protein was measured by a phosphotransferase assay using Kemptide as a substrate (Kemp et al., J. Biol. Chem. 252, p 4888-4894, 1977; Roskoski, R. Methods Enzymol. 99, p 3-6, 1983) in the absence and presence of cAMP (FIG. 12). Specific PKA activity was abrogated when PKI (5-24) peptide (10 μM) was added to the reaction mixture. The MEME3 fusion protein coprecipitated 17-fold more PKA-C activity than the RIIα-selective peptide, AKAP-is (IS) (Alto et al., 2003, supra). […] The accumulated data from three independent experiments are shown.
molecule,measurement,setting,value
LEQYANQLADQIIKEATERRRRRRRRRrr [MEME3-Arg11],increase in IL-2 production,"[1]; 10 μM, relative to untreated T cells",2.5 fold
same,IL-2 levels,"[1]; 12 hours peptide, Sp-8-Br-cAMPs, CD3/CD28 stimulation",increased in samples treated with MEME3-Arg11 in a concentration-dependent manner
CC[C@H](C)[C@H](NC(=O)[C@H](CCC(N)=O)NC(=O)[C@H](CC(=O)O)NC(=O)[C@H](C)NC(=O)[C@H](CC(C)C)NC(=O)[C@H](CCC(N)=O)NC(=O)[C@H](CC(N)=O)NC(=O)[C@H](C)NC(=O)[C@H](Cc1ccc(O)cc1)NC(=O)[C@H](CCC(N)=O)NC(=O)[C@H](CCC(=O)O)NC(=O)[C@@H](N)CC(C)C)C(=O)N[C@H](C(=O)N[C@@H](CCCCN)C(=O)N[C@@H](CCC(=O)O)C(=O)N[C@@H](C)C(=O)N[C@H](C(=O)N[C@@H](CCC(=O)O)C(=O)N[C@@H](CCCCNC(=O)c1ccc2c(c1)C(=O)OC21c2ccc(O)cc2Oc2cc(O)ccc21)C(N)=O)[C@@H](C)O)[C@@H](C)CC [MEME3],binding to RIα (Δ1-24) (overlay),[2],No binding
same,binding to RIα (Δ1-11) and RIα (Δ1-15) (overlay),[3],even higher affinity
same,coprecipitated PKA-C activity relative to AKAP-is (IS),"[4]; Kemptide substrate, three experiments",17 fold
"IEKELAQQYQNADAITLE [SM3, scrambled MEME3 negative control peptide, reference compound]",coprecipitated kinase activity,[4],No kinase activity was detected
